Measured values: PubChem BioAssay AID1745844 (Carcinogenic Potency Database (CPDB), 2022)
Calls of active or inactive are those of the source. No rule for the calls is given here.

System: rodent lifetime carcinogenesis bioassay, tumor incidence TD50
Test: carcinogenic potency in animals, long-term in vivo studies, CPDB compilation (AID 1745844)

Cc1cc(-c2ccc(N)c(C)c2)ccc1N
TD50 (mouse, strain BALB/cStCrlfC3Hf/Nctr, females, in drinking water, site: lung, lesion: adenocarcinoma, dosed 52 weeks, study length 52 weeks): 147 mg/kg/day
TD50 (mouse, strain BALB/cStCrlfC3Hf/Nctr, females, in drinking water, site: lung, lesion: adenocarcinoma, dosed 78 weeks, study length 78 weeks): 168 mg/kg/day
TD50 (mouse, strain BALB/cStCrlfC3Hf/Nctr, females, in drinking water, site: lung, lesion: several types, types named in the paper, dosed 52 weeks, study length 52 weeks): 28.1 mg/kg/day
TD50 (mouse, strain BALB/cStCrlfC3Hf/Nctr, females, in drinking water, site: lung, lesion: several types, types named in the paper, dosed 78 weeks, study length 78 weeks): 295 mg/kg/day
TD50 (mouse, strain BALB/cStCrlfC3Hf/Nctr, males, in drinking water, site: lung, lesion: adenocarcinoma, dosed 52 weeks, study length 52 weeks): 123 mg/kg/day
TD50 (mouse, strain BALB/cStCrlfC3Hf/Nctr, males, in drinking water, site: lung, lesion: adenocarcinoma, dosed 112 weeks, study length 112 weeks): 50.1 mg/kg/day
TD50 (mouse, strain BALB/cStCrlfC3Hf/Nctr, males, in drinking water, site: lung, lesion: several types, types named in the paper, dosed 52 weeks, study length 52 weeks): 684 mg/kg/day
TD50 (mouse, strain BALB/cStCrlfC3Hf/Nctr, males, in drinking water, site: lung, lesion: several types, types named in the paper, dosed 78 weeks, study length 78 weeks): 423 mg/kg/day
TD50 (mouse, strain BALB/cStCrlfC3Hf/Nctr, males, in drinking water, site: lung, lesion: several types, types named in the paper, dosed 112 weeks, study length 112 weeks): 28.6 mg/kg/day
TD50 (rat, strain Fischer 344, females, in drinking water, site: Zymbal's gland, lesion: adenoma + adenoma, bilateral + carcinoma + carcinoma, bilateral, dosed 60 weeks, study length 60 weeks): 1.27 mg/kg/day
TD50 (rat, strain Fischer 344, females, in drinking water, site: Zymbal's gland, lesion: adenoma + adenoma, bilateral, dosed 60 weeks, study length 60 weeks): 3.08 mg/kg/day
TD50 (rat, strain Fischer 344, females, in drinking water, site: Zymbal's gland, lesion: carcinoma + carcinoma, bilateral, dosed 60 weeks, study length 60 weeks): 2 mg/kg/day
TD50 (rat, strain Fischer 344, females, in drinking water, site: all sites, lesion: mononuclear-cell leukemia, dosed 60 weeks, study length 60 weeks): 6.46 mg/kg/day
TD50 (rat, strain Fischer 344, females, in drinking water, site: any site (literature study), lesion: several types, types named in the paper, dosed 60 weeks, study length 60 weeks): 0.462 mg/kg/day
TD50 (rat, strain Fischer 344, females, in drinking water, site: brain, lesion: astrocytoma, malignant + malignant glioma + meningioma, malignant, dosed 60 weeks, study length 60 weeks): 15.4 mg/kg/day
TD50 (rat, strain Fischer 344, females, in drinking water, site: clitoral gland + colon + duodenum + ileum + jejunum + liver + lung + mammary gland + pharynx + rectum + skin + tongue + Zymbal's gland, lesion: adenoma + adenoma, bilateral + carcinoma + carcinoma, bilateral + adenocarcinoma + adenomatous polyp + mucinous adenocarcinoma + mucin, dosed 60 weeks, study length 60 weeks): 0.418 mg/kg/day
TD50 (rat, strain Fischer 344, females, in drinking water, site: clitoral gland, lesion: adenoma + adenoma, bilateral + carcinoma + carcinoma, bilateral, dosed 60 weeks, study length 60 weeks): 0.847 mg/kg/day
TD50 (rat, strain Fischer 344, females, in drinking water, site: clitoral gland, lesion: adenoma + adenoma, bilateral, dosed 60 weeks, study length 60 weeks): 1.31 mg/kg/day
TD50 (rat, strain Fischer 344, females, in drinking water, site: clitoral gland, lesion: carcinoma + carcinoma, bilateral, dosed 60 weeks, study length 60 weeks): 2.58 mg/kg/day
TD50 (rat, strain Fischer 344, females, in drinking water, site: colon + rectum, lesion: adenocarcinoma + adenomatous polyp, dosed 60 weeks, study length 60 weeks): 6.65 mg/kg/day
TD50 (rat, strain Fischer 344, females, in drinking water, site: colon + rectum, lesion: adenomatous polyp, dosed 60 weeks, study length 60 weeks): 7.11 mg/kg/day
TD50 (rat, strain Fischer 344, females, in drinking water, site: duodenum + ileum + jejunum, lesion: adenocarcinoma + adenomatous polyp + mucinous adenocarcinoma + mucinous cystadenocarcinoma, dosed 60 weeks, study length 60 weeks): 11 mg/kg/day
TD50 (rat, strain Fischer 344, females, in drinking water, site: duodenum + ileum + jejunum, lesion: adenocarcinoma + mucinous adenocarcinoma + mucinous cystadenocarcinoma, dosed 60 weeks, study length 60 weeks): 15.4 mg/kg/day
TD50 (rat, strain Fischer 344, females, in drinking water, site: liver, lesion: hepatocellular adenoma + hepatocellular carcinoma + neoplastic nodule, dosed 60 weeks, study length 60 weeks): 6.97 mg/kg/day
TD50 (rat, strain Fischer 344, females, in drinking water, site: liver, lesion: hepatocellular carcinoma + neoplastic nodule, dosed 60 weeks, study length 60 weeks): 6.97 mg/kg/day
TD50 (rat, strain Fischer 344, females, in drinking water, site: liver, lesion: neoplastic nodule, dosed 60 weeks, study length 60 weeks): 7.62 mg/kg/day
TD50 (rat, strain Fischer 344, females, in drinking water, site: lung, lesion: alveolar/bronchiolar adenoma + alveolar/bronchiolar carcinoma, dosed 60 weeks, study length 60 weeks): 11.9 mg/kg/day
TD50 (rat, strain Fischer 344, females, in drinking water, site: lung, lesion: alveolar/bronchiolar adenoma, dosed 60 weeks, study length 60 weeks): 13.6 mg/kg/day
TD50 (rat, strain Fischer 344, females, in drinking water, site: mammary gland, lesion: adenocarcinoma + fibroadenoma, dosed 60 weeks, study length 60 weeks): 5.77 mg/kg/day
TD50 (rat, strain Fischer 344, females, in drinking water, site: mammary gland, lesion: adenocarcinoma, dosed 60 weeks, study length 60 weeks): 8.33 mg/kg/day
TD50 (rat, strain Fischer 344, females, in drinking water, site: pharynx + tongue, lesion: squamous-cell carcinoma + squamous-cell papilloma, dosed 60 weeks, study length 60 weeks): 3.2 mg/kg/day
TD50 (rat, strain Fischer 344, females, in drinking water, site: pharynx + tongue, lesion: squamous-cell carcinoma, dosed 60 weeks, study length 60 weeks): 11.8 mg/kg/day
TD50 (rat, strain Fischer 344, females, in drinking water, site: pharynx + tongue, lesion: squamous-cell papilloma, dosed 60 weeks, study length 60 weeks): 4.26 mg/kg/day
TD50 (rat, strain Fischer 344, females, in drinking water, site: skin, lesion: basal-cell adenoma + basal-cell carcinoma, dosed 60 weeks, study length 60 weeks): 3.8 mg/kg/day
TD50 (rat, strain Fischer 344, females, in drinking water, site: skin, lesion: basal-cell adenoma, dosed 60 weeks, study length 60 weeks): 5.77 mg/kg/day
TD50 (rat, strain Fischer 344, females, in drinking water, site: skin, lesion: basal-cell carcinoma, dosed 60 weeks, study length 60 weeks): 11.6 mg/kg/day
TD50 (rat, strain Fischer 344, females, in drinking water, site: skin, lesion: squamous-cell carcinoma + squamous-cell papilloma, dosed 60 weeks, study length 60 weeks): 3.17 mg/kg/day
TD50 (rat, strain Fischer 344, females, in drinking water, site: skin, lesion: squamous-cell carcinoma, dosed 60 weeks, study length 60 weeks): 5.56 mg/kg/day
TD50 (rat, strain Fischer 344, females, in drinking water, site: skin, lesion: squamous-cell papilloma, dosed 60 weeks, study length 60 weeks): 7.06 mg/kg/day
TD50 (rat, strain Fischer 344, males, in drinking water, site: Zymbal's gland, lesion: adenoma + adenoma, bilateral + carcinoma + carcinoma, bilateral, dosed 58 weeks, study length 60 weeks): 1.12 mg/kg/day
TD50 (rat, strain Fischer 344, males, in drinking water, site: Zymbal's gland, lesion: adenoma + adenoma, bilateral, dosed 58 weeks, study length 60 weeks): 2.38 mg/kg/day
TD50 (rat, strain Fischer 344, males, in drinking water, site: Zymbal's gland, lesion: carcinoma + carcinoma, bilateral, dosed 58 weeks, study length 60 weeks): 1.93 mg/kg/day
TD50 (rat, strain Fischer 344, males, in drinking water, site: adrenal medulla, lesion: pheochromocytoma, benign, dosed 58 weeks, study length 60 weeks): 10.6 mg/kg/day
TD50 (rat, strain Fischer 344, males, in drinking water, site: any site (literature study), lesion: several types, types named in the paper, dosed 58 weeks, study length 60 weeks): 0.334 mg/kg/day
TD50 (rat, strain Fischer 344, males, in drinking water, site: brain, lesion: glioma malignant, focal, mild + malignant glioma + meningioma, malignant, dosed 58 weeks, study length 60 weeks): 26.1 mg/kg/day
TD50 (rat, strain Fischer 344, males, in drinking water, site: cecum + colon + duodenum + ileum + jejunum + large intestine + liver + lung + multiple organs + pharynx + preputial gland + rectum + skin + tongue, lesion: adenomatous polyp + adenocarcinoma + mucinous cystadenocarcinoma + hepatocellular carcinoma + neoplastic nodule + alveolar/bronchi, dosed 58 weeks, study length 60 weeks): 0.346 mg/kg/day
TD50 (rat, strain Fischer 344, males, in drinking water, site: cecum + colon + large intestine + rectum, lesion: adenomatous polyp + adenocarcinoma + mucinous cystadenocarcinoma, dosed 58 weeks, study length 60 weeks): 3.76 mg/kg/day
TD50 (rat, strain Fischer 344, males, in drinking water, site: cecum + colon + rectum, lesion: adenomatous polyp, dosed 58 weeks, study length 60 weeks): 4.87 mg/kg/day
TD50 (rat, strain Fischer 344, males, in drinking water, site: colon + large intestine + rectum, lesion: adenocarcinoma + mucinous cystadenocarcinoma, dosed 58 weeks, study length 60 weeks): 14.4 mg/kg/day
TD50 (rat, strain Fischer 344, males, in drinking water, site: duodenum + ileum + jejunum, lesion: mucinous cystadenocarcinoma + adenocarcinoma + adenomatous polyp, dosed 58 weeks, study length 60 weeks): 6.99 mg/kg/day
TD50 (rat, strain Fischer 344, males, in drinking water, site: duodenum + ileum + jejunum, lesion: mucinous cystadenocarcinoma + adenocarcinoma, dosed 58 weeks, study length 60 weeks): 7.79 mg/kg/day
TD50 (rat, strain Fischer 344, males, in drinking water, site: liver, lesion: hepatocellular adenoma + hepatocellular carcinoma + neoplastic nodule, dosed 58 weeks, study length 60 weeks): 0.898 mg/kg/day
TD50 (rat, strain Fischer 344, males, in drinking water, site: liver, lesion: hepatocellular carcinoma + neoplastic nodule, dosed 58 weeks, study length 60 weeks): 0.898 mg/kg/day
TD50 (rat, strain Fischer 344, males, in drinking water, site: liver, lesion: hepatocellular carcinoma, dosed 58 weeks, study length 60 weeks): 2.76 mg/kg/day
TD50 (rat, strain Fischer 344, males, in drinking water, site: liver, lesion: neoplastic nodule, dosed 58 weeks, study length 60 weeks): 1.12 mg/kg/day
TD50 (rat, strain Fischer 344, males, in drinking water, site: lung, lesion: alveolar/bronchiolar adenoma + alveolar/bronchiolar carcinoma, dosed 58 weeks, study length 60 weeks): 4.93 mg/kg/day
TD50 (rat, strain Fischer 344, males, in drinking water, site: lung, lesion: alveolar/bronchiolar adenoma, dosed 58 weeks, study length 60 weeks): 5.47 mg/kg/day
TD50 (rat, strain Fischer 344, males, in drinking water, site: multiple organs, lesion: mesothelioma, malignant, dosed 58 weeks, study length 60 weeks): 9.45 mg/kg/day
TD50 (rat, strain Fischer 344, males, in drinking water, site: pharynx + tongue, lesion: squamous-cell carcinoma + squamous-cell papilloma, dosed 58 weeks, study length 60 weeks): 8.47 mg/kg/day
TD50 (rat, strain Fischer 344, males, in drinking water, site: pharynx + tongue, lesion: squamous-cell carcinoma, dosed 58 weeks, study length 60 weeks): 26.7 mg/kg/day
TD50 (rat, strain Fischer 344, males, in drinking water, site: preputial gland, lesion: adenoma + carcinoma, dosed 58 weeks, study length 60 weeks): 3.96 mg/kg/day
TD50 (rat, strain Fischer 344, males, in drinking water, site: preputial gland, lesion: adenoma, dosed 58 weeks, study length 60 weeks): 4.94 mg/kg/day
TD50 (rat, strain Fischer 344, males, in drinking water, site: skin, lesion: basal-cell adenoma + basal-cell carcinoma, dosed 58 weeks, study length 60 weeks): 0.5 mg/kg/day
TD50 (rat, strain Fischer 344, males, in drinking water, site: skin, lesion: basal-cell adenoma, dosed 58 weeks, study length 60 weeks): 0.534 mg/kg/day
TD50 (rat, strain Fischer 344, males, in drinking water, site: skin, lesion: basal-cell carcinoma, dosed 58 weeks, study length 60 weeks): 8.85 mg/kg/day
TD50 (rat, strain Fischer 344, males, in drinking water, site: skin, lesion: keratoacanthoma, dosed 58 weeks, study length 60 weeks): 4.58 mg/kg/day
TD50 (rat, strain Fischer 344, males, in drinking water, site: skin, lesion: sebaceous adenoma, dosed 58 weeks, study length 60 weeks): 5.62 mg/kg/day
TD50 (rat, strain Fischer 344, males, in drinking water, site: skin, lesion: squamous-cell carcinoma + squamous-cell papilloma, dosed 58 weeks, study length 60 weeks): 1.55 mg/kg/day
TD50 (rat, strain Fischer 344, males, in drinking water, site: skin, lesion: squamous-cell carcinoma, dosed 58 weeks, study length 60 weeks): 2.8 mg/kg/day
TD50 (rat, strain Fischer 344, males, in drinking water, site: skin, lesion: squamous-cell papilloma, dosed 58 weeks, study length 60 weeks): 3.28 mg/kg/day

CC(C(O)c1ccccc1)N(C)N=O (stereo not drawn)
TD50 (rat, strain Sprague-Dawley, males, by gavage, site: any site (literature study), lesion: several types, types named in the paper, dosed 104 weeks, study length 104 weeks): 40 mg/kg/day
TD50 (rat, strain Sprague-Dawley, males, by gavage, site: forestomach, lesion: papilloma, dosed 104 weeks, study length 104 weeks): 239 mg/kg/day
TD50 (rat, strain Sprague-Dawley, males, by gavage, site: forestomach, lesion: squamous-cell carcinoma, dosed 104 weeks, study length 104 weeks): 740 mg/kg/day
TD50 (rat, strain Sprague-Dawley, males, by gavage, site: liver, lesion: hepatocellular carcinoma, dosed 104 weeks, study length 104 weeks): 138 mg/kg/day
TD50 (rat, strain Sprague-Dawley, males, by gavage, site: liver, lesion: several types, types named in the paper, dosed 104 weeks, study length 104 weeks): 95.2 mg/kg/day
TD50 (rat, strain Sprague-Dawley, males, by gavage, site: lung, lesion: several types, types named in the paper, dosed 104 weeks, study length 104 weeks): 217 mg/kg/day

O=NN1CCCCC1C(=O)O (stereo not drawn)
TD50 (rat, strain MRC, females, in drinking water, site: any site (literature study), lesion: several types, types named in the paper, dosed 75 weeks, study length 104 weeks): 4.99 mg/kg/day (inactive)
TD50 (rat, strain MRC, males, in drinking water, site: any site (literature study), lesion: several types, types named in the paper, dosed 75 weeks, study length 104 weeks): 3.82 mg/kg/day (inactive)
